Experimental data reported in patent US10689381B2 (priority 2017, dated 2020).
≈ marks a conversion by molar mass, not a printed value. Where two headings read alike, the source gives them in different places.

Experiments:
L1210 [1] = test: cells; format: cell-based, mouse
Procedure, shortened: (§1)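 Compound exposure ran 72 h at six concentrations (0–1000 nM or 0–10000 nM, duplicate) on cells plated at 30,000 cells/mL in 10% FBS DMEM. A closing 37 °C incubation took 15 min (HCT116) or 5 min (L1210).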

HCT116 [2] = test: cells; format: cell-based, human
Procedure, shortened: as §1

HCT116/VM46 = test: cells; format: cell-based, human
Method: Compounds were tested for their cell growth inhibition of L1210 (ATCC no. CCL-219, mouse lymphocytic leukemia), HCT116 (ATCC no. CCL-247, human colorectal carcinoma), and HCT116/VM46 (a vinblastine-resistant strain of HCT116) cells in culture. A population of cells (>1×10^6 cells/mL as determined with a hemocytometer) was diluted with Dulbecco's Modified Eagle Medium (DMEM, Gibco) containing 10% fetal bovine serum (FBS, Gibco) to give a final concentration of 30,000 cells/mL. To each well of a 96-well plate (Corning® Costar®) was added 100 μL of the cell media solution with a multichannel pipet. The cultures were incubated at 37° C. in an atmosphere of 5% CO2 and 95% humidified air for 24 hours.
The test compounds were then added to the plate as follows: test compounds were diluted in DMSO to a concentration of 1 mM. 10-Fold serial dilutions in DMSO were next performed on a separate 96-well plate. Fresh culture media (100 μL) was added to each well of cells resulting in 200 μL of medium per well followed by 2 μL of each test agent. Compounds were tested in duplicate (n=2-8 times) at six concentrations between 0-1000 nM or 0-10000 nM. Following the addition of compound, cultures were incubated for an additional 72 hours.
The plates were incubated at 37° C. for 5 minutes (L1210) or 15 min (HCT116 and HCT116/VM46). After the given incubation time, 50 μL of 0.1 N NaOH was added to each well and the absorption at 405 nm was determined using a 96 well plate reader. […]

A549-T24 = test: cells; format: cell-based, human
From the text: (§2) 2001, 98:11737; Kavallaris et al., Brit. J. Cancer. 1999, 80:1020; and Kavallaris et al., J. Clin. Invest. 1997, 100:1282]. As a result, the comparison of cell growth inhibition of candidate drugs against A549 vs A549-T24 has been used to characterize potential resistance due to increased expression of class III β-tubulin [Goncalves et al., Proc. Natl. Acad. Sci. USA. 2001, 98:11737; Kavallaris et al., Brit. J. Cancer. 1999, 80:1020; and Kavallaris et al., J. Clin. Invest. 1997, 100:1282].

A549 = test: cells; format: cell-based, human; conditions: read-out: IC50 A549
From the text: as §2

L1210 [3] = conditions: Table 1, footnote b: Reported in ref. 41; cited from earlier work
HCT116 [4] = conditions: cited from earlier work; for IC50: Table 1, footnote b: Reported in ref. 41
Tubulin = conditions: for % displacement: Table 9, displacement of tubulin bound BODIPY-vinblastine
Method: Control studies were performed with BODIPY-VBL in the absence of a competitive ligand (control 1, maximum FI enhancement) and in the absence of tubulin (control 2, no FI enhancement). Percent (%) BODIPY-VBL displacement was calculated by the formula: (control 1 FI−experiment FI)/(Control 1 FI−Control 2 FI)×100%. Reported values are the average of 5 measurements±SD.

cells = format: cell-based, human; conditions: range over L1210 and HCT116, stated in text; read-out: IC50 against vinblastine-sensitive cell lines
Procedure, shortened: as §1

Pgp = Pgp (Homo sapiens, UniProt P08183); test: Drug-stimulated Pgp ATPase activity in membranes (MDR1 PREDEASY ATPase kit)
Pgp, sequence (P08183 whole entry): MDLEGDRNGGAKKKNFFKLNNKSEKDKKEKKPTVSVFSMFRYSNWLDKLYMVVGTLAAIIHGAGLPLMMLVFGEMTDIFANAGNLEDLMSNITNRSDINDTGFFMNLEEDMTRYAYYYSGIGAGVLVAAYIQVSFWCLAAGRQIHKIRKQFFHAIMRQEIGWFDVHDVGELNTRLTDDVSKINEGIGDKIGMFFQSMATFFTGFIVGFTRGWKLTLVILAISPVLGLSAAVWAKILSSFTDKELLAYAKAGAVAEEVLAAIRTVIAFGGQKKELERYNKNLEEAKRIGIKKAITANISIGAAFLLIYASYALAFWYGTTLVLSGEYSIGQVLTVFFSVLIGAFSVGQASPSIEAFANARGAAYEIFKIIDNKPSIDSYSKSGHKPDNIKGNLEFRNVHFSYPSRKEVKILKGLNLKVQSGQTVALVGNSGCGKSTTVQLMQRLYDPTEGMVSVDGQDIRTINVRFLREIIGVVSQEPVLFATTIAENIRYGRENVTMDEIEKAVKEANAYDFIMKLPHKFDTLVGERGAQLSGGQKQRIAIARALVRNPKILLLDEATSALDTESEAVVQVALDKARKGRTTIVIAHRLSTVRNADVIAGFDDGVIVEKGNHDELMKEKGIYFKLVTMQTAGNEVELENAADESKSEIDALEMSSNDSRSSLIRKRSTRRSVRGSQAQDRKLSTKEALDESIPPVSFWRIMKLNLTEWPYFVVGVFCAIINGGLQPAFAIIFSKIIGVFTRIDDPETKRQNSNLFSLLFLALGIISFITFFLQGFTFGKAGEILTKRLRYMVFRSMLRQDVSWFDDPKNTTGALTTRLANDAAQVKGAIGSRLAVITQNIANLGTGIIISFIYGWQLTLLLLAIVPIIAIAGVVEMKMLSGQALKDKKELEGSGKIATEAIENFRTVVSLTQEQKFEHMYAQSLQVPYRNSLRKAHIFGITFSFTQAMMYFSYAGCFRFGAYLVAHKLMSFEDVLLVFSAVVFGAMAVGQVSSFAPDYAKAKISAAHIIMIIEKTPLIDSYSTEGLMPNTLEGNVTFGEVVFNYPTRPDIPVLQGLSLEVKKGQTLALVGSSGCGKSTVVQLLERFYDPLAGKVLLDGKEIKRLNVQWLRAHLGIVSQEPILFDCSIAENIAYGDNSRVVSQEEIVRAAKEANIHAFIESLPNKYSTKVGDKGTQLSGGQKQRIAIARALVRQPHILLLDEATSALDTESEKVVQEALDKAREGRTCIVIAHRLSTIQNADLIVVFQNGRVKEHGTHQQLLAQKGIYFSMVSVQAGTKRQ

[5] = vinblastine-sensitive cell lines
[6] = Table 9, read-out: IC50 (nM, HCT116)
[7] = Table 10, read-out: IC50 (nM), HCT116
[8] = Table 2, read-out: IC50 HCT116/VM46
[9] = Table 10, read-out: IC50 (nM), HCT116/VM46
[10] = Table 6, read-out: IC50 HCT116/VM46

CCC1(NC=O)CC2CN(CCc3c([nH]c4ccccc34)C(C(=O)OC)(c3cc4c(cc3OC)N(C)C3C(O)(C(=O)OC)C(OC(C)=O)C5(CC)C=CCN6CCC43C65)C2)C1 (stereo not drawn) [Compound 9]
IC50 (L1210 [1]): 0.5 nM | activity relative to free amine Compound 6 (more active) (HCT116 [2]): 10 fold | IC50 (HCT116 [2]; read-out: IC50 HCT116): 0.6 nM | potency relative to vinblastine (less potent / reduced activity) (HCT116 [2]; [5]): approximately 10 fold | differential in activity between sensitive and resistant HCT116 cell lines (HCT116/VM46; HCT116/VM46 vs HCT116): ~80 fold | IC50 (HCT116/VM46; read-out: IC50 HCT116/VM46): 7.5 nM | IC50 (A549-T24): 0.7 nM | IC50 (A549): 0.7 nM | IC50 (L1210 [3]): 65 nM | IC50 (HCT116 [4]): 85 nM

CC[C@]1(NC(C)=O)C[C@H]2CN(CCc3c([nH]c4ccccc34)[C@@](C(=O)OC)(c3cc4c(cc3OC)N(C)[C@H]3[C@@](O)(C(=O)OC)[C@H](OC(C)=O)[C@]5(CC)C=CCN6CC[C@]43[C@@H]65)C2)C1 [Compound 10, 20′-Acetamidovinblastine]
activity relative to free amine Compound 6 (more active) (HCT116 [2]): 10 fold | potency relative to vinblastine (less potent / reduced activity) (HCT116 [2]; [5]): approximately 10 fold | differential in activity between sensitive and resistant HCT116 cell lines (HCT116/VM46; HCT116/VM46 vs HCT116): ~80 fold | IC50 (L1210 [3]): 65 nM | IC50 (HCT116 [4]): 90 nM

CC[C@]1(NC(=O)C(F)(F)F)C[C@H]2CN(CCc3c([nH]c4ccccc34)[C@@](C(=O)OC)(c3cc4c(cc3OC)N(C)[C@H]3[C@@](O)(C(=O)OC)[C@H](OC(C)=O)[C@]5(CC)C=CCN6CC[C@]43[C@@H]65)C2)C1 [Compound 11]
IC50 (L1210 [3]): 660 nM | IC50 (HCT116 [4]): 690 nM

CC[C@]1(NC(=O)c2ccc(C)c(C)c2)C[C@H]2CN(CCc3c([nH]c4ccccc34)[C@@](C(=O)OC)(c3cc4c(cc3OC)N(C)[C@H]3[C@@](O)(C(=O)OC)[C@H](OC(C)=O)[C@]5(CC)C=CCN6CC[C@]43[C@@H]65)C2)C1 [Compound 28]
IC50 (L1210 [1]): 3 nM | IC50 (L1210 [1]; Table 2): 3 nM | IC50 (HCT116 [2]; Table 2, read-out: IC50 HCT116): 4.5 nM | IC50 (HCT116 [2]; [6]): 4.5 nM | IC50 (HCT116 [2]; [7]): 4.5 nM | IC50 (HCT116 [2]; read-out: IC50 HCT116): 4.5 nM | IC50 (HCT116/VM46; [8]): 7.6 nM | IC50 (HCT116/VM46; [9]): 7.6 nM | IC50 (HCT116/VM46; read-out: IC50 HCT116/VM46): 7.6 nM | IC50 (A549-T24): 2.5 nM | IC50 (A549): 5 nM | % displacement (Tubulin): 67 ± 8%

CCC1(NC(=O)c2ccc3c(c2)CCCC3)CC2CN(CCc3c([nH]c4ccccc34)C(C(=O)OC)(c3cc4c(cc3OC)N(C)C3C(O)(C(=O)OC)C(OC(C)=O)C5(CC)C=CCN6CCC43C65)C2)C1 (stereo not drawn) [Compound 121]
IC50 (L1210 [1]): 3 nM | IC50 (L1210 [1]; Table 4): 3.3 nM | IC50 (HCT116 [2]; Table 4, read-out: IC50 HCT116): 4.9 nM | IC50 (HCT116 [2]; [6]): 4.9 nM | IC50 (HCT116 [2]; [7]): 4.9 nM | IC50 (HCT116 [2]; read-out: IC50 HCT116): 4.9 nM | potency relative to vinblastine (more potent) (HCT116 [2]; [5]): about 2 fold | IC50 (A549-T24): 6.5 nM | IC50 (A549): 7.6 nM | % displacement (Tubulin): 63 ± 5% | relative tubulin binding affinity vs vinblastine (Tubulin; in words, b167): essentially indistinguishable from or perhaps slightly better than that of vinblastine

CCC1(NC(=O)c2ccc3c(c2)CCCO3)CC2CN(CCc3c([nH]c4ccccc34)C(C(=O)OC)(c3cc4c(cc3OC)N(C)C3C(O)(C(=O)OC)C(OC(C)=O)C5(CC)C=CCN6CCC43C65)C2)C1 (stereo not drawn) [Compound 173]
IC50 (L1210 [1]): 0.4 nM | IC50 (L1210 [1]; Table 6): 0.4 nM | IC50 (cells): 0.4 to 0.5 nM | IC50 (HCT116 [2]; Table 6, read-out: IC50 HCT116): 0.5 nM | IC50 (HCT116 [2]; [6]): 0.5 nM | IC50 (HCT116 [2]; [7]): 0.5 nM | IC50 (HCT116 [2]; read-out: IC50 HCT116): 0.5 nM | differential in activity between sensitive and resistant HCT116 cell lines (HCT116/VM46; HCT116/VM46 vs HCT116): 3.8 fold | IC50 (HCT116/VM46; [10]): 1.8 nM | IC50 (HCT116/VM46; [9]): 1.8 nM | IC50 (HCT116/VM46; read-out: IC50 HCT116/VM46): 1.8 nM | IC50 (HCT116/VM46; read-out: IC50 against resistant HCT116 cell line): 1.8 nM | IC50 (A549-T24): 0.8 nM | IC50 (A549): 1.4 nM | % displacement (Tubulin): 98 ± 7%

CCC1(O)C[C@H]2CN(CCc3c([nH]c4ccc(F)cc34)[C@@](C(=O)OC)(c3cc4c(cc3OC)N(C)C3C(O)(C(=O)OC)[C@H](OC(C)=O)[C@]5(CC)C=CCN6CC[C@]43[C@@H]65)C2)C1 (stereo partly drawn) [Compound 187, 10′-fluorovinblastine, reference compound]
IC50 (L1210 [1]; Mus musculus, L1210, Table 8, 10′-F compounds): 0.6 nM | IC50 (L1210 [1]; Mus musculus, L1210, table b183): 0.7 nM | IC50 (HCT116 [2]; Homo sapiens, HCT-116, Table 8, 10′-F compounds, read-out: IC50 HCT116): 0.7 nM | IC50 (HCT116 [2]; Homo sapiens, HCT-116, table b183, read-out: IC50 HCT116): 0.8 nM | IC50 (A549-T24; Homo sapiens): < 8 nM | IC50 (A549; Homo sapiens, A549): 2.9 nM | improvement in activity over vinblastine (HCT116 [4]; recent work, Gotoh et al. 2011): ~10 fold

CC[C@]1(NC(=O)c2ccc(OC)c(OC)c2)C[C@H]2CN(CCc3c([nH]c4ccc(F)cc34)[C@@](C(=O)OC)(c3cc4c(cc3OC)N(C)[C@H]3[C@@](O)(C(=O)OC)[C@H](OC(C)=O)[C@]5(CC)C=CCN6CC[C@]43[C@@H]65)C2)C1 [Compound 190]
IC50 (L1210 [1]; Table 8, 10′-F compounds): 0.06 nM | IC50 (cells): 0.06 to 0.08 nM | IC50 (HCT116 [2]; Table 8, 10′-F compounds, read-out: IC50 HCT116): 0.08 nM

CC[C@]1(O)C[C@@H]2CN(CCc3c([nH]c4ccccc34)[C@@](C(=O)OC)(c3cc4c(cc3OC)N(C)[C@H]3[C@@](O)(C(=O)OC)[C@H](OC(C)=O)[C@]5(CC)C=CCN6CC[C@]43[C@@H]65)C2)C1 [Vinblastine (1), Vinblastine, reference compound]
IC50 (L1210 [1]): 6 nM | IC50 (L1210 [1]; Table 1): 6 nM | IC50 (L1210 [1]; Table 2): 6 nM | IC50 (L1210 [1]; Table 3): 6 nM | IC50 (L1210 [1]; Table 4): 6 nM | IC50 (L1210 [1]; Table 5): 6 nM | IC50 (L1210 [1]; Table 6): 6 nM | IC50 (L1210 [1]; Table 7, C20′ sulfonamides): 6 nM | IC50 (L1210 [1]; Table 8, 10′-F compounds): 6 nM | MIC, HCT116/VM46 cells (HCT116/VM46): 0.6 µM (≈ 0.487 µg/mL) | differential in activity between sensitive and resistant HCT116 cell lines (HCT116/VM46): 88 fold | IC50 (HCT116/VM46; Table 1, read-out: IC50 HCT116/VM46): 600 nM | IC50 (HCT116/VM46; [8]): 600 nM | IC50 (HCT116/VM46; Table 3, read-out: IC50 HCT116/VM46): 600 nM | IC50 (HCT116/VM46; Table 4, read-out: IC50 HCT116/VM46): 600 nM | IC50 (HCT116/VM46; Table 5, read-out: IC50 HCT116/VM46): 600 nM | IC50 (HCT116/VM46; [10]): 600 nM | IC50 (HCT116/VM46; Table 7, C20′ sulfonamides, read-out: IC50 HCT116/VM46): 600 nM | IC50 (HCT116/VM46; Table 8, 10′-F compounds, read-out: IC50 HCT116/VM46): 600 nM | IC50 (HCT116/VM46; [9]): 600 nM | IC50 (HCT116/VM46; read-out: IC50 HCT116/VM46): 600 nM | IC50 (HCT116/VM46; table in Background, C20′ substituent X, read-out: IC50, HCT116/VM46): 600 nM | IC50 (A549-T24): 6.7 nM | IC50 (A549): 7.7 nM | percent (%) displacement of tubulin-bound BODIPY-vinblastine (Tubulin; FIG. 2, competitive ligand 18 μM): 50% | % displacement (Tubulin): 61 ± 13% | Papp, B to A (Caco-2 cells): 38.2 ± 2.0 x 10^−6 cm/s | % Pgp ATPase activity (Pgp): 87%
